# Laboratory results reported in patent US12655116B2, “Substituted isophthalic acid diamides” (Bayer Aktiengesellschaft, priority 2020, dated 2026).
# Legend:
# ECHCG [1] = test: Pre-emergence herbicidal action against ECHCG; assay type: in vivo, Echinochloa crus-galli; conditions: Echinochloa crus-galli, 504 h
# Method in brief: (§1)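 Greenhouse pots of sandy loam held seeds covered with soil, onto which the compound was applied before emergence. An aqueous suspension or emulsion of WP or EC was used at 600 to 800 l/ha with 0.2% wetting agent. Percent damage was judged visually at 3 weeks.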
# ALOMY [2] = test: Pre-emergence herbicidal action against ALOMY; assay type: in vivo, Alopecurus myosuroides; conditions: Alopecurus myosuroides, 504 h, pre-emergence; for pest or weed control at 80 g/ha: scored visually after 3 weeks vs untreated controls (100% = plants have died, 0% = like control plants); for pest or weed control at 20 g/ha: scored visually after 3 weeks, 100% = plants have died, 0% = like control plants
# Method in brief: as §1
# AMARE [3] = test: Post-emergence herbicidal action against AMARE; assay type: in vivo, Amaranthus retroflexus; conditions: Amaranthus retroflexus, 504 h, 20 g/ha, visual assessment about 3 weeks after treatment, 100% = plants have died, 0% = like control plants
# Method in brief: (§2)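 A WP or EC formulation diluted in water with 0.2% wetting agent was sprayed at 600 to 800 l/ha onto one-leaf-stage plants grown in sandy loam. About 3 weeks later, action was rated visually in percent, 100% being dead plants.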
# VERPE = test: Pre-emergence herbicidal action against VERPE; assay type: in vivo, Veronica persica; conditions: Veronica persica, 504 h, dosage 80 g/ha
# Method in brief: as §1
# ABUTH [4] = test: Pre-emergence herbicidal action against ABUTH; assay type: in vivo, Abutilon theophrasti; conditions: Abutilon theophrasti, 504 h; for pest or weed control at 80 g/ha: scored visually after 3 weeks vs untreated controls (100% = plants have died, 0% = like control plants)
# Method in brief: as §1
# ABUTH [5] = test: Post-emergence herbicidal action against ABUTH; assay type: in vivo, Abutilon theophrasti; conditions: Abutilon theophrasti, 504 h, visual assessment about 3 weeks after treatment vs untreated controls; for pest or weed control at 20 g/ha: dosage 20 g/ha
# Method in brief: as §2
# ECHCG [6] = test: Post-emergence herbicidal action against ECHCG; assay type: in vivo, Echinochloa crus-galli; conditions: Echinochloa crus-galli, 504 h; for pest or weed control at 20 g/ha: dosage 20 g/ha
# Method in brief: as §2
# PHBPU [7] = test: Post-emergence herbicidal action against PHBPU; assay type: in vivo, Pharbitis purpurea; conditions: Ipomoea purpurea, 504 h, dosage 20 g/ha
# Method in brief: as §2
# VIOTR [8] = test: Pre-emergence herbicidal action against VIOTR; assay type: in vivo, Viola tricolor; conditions: Viola tricolor, 504 h, dosage 80 g/ha
# Method in brief: as §1
# POLCO = test: Pre-emergence herbicidal action against POLCO; assay type: in vivo, Polygonum convolvulus; conditions: Fallopia convolvulus, 504 h, dosage 80 g/ha
# Method in brief: as §1
# ALOMY [9] = test: Post-emergence herbicidal action against ALOMY; assay type: in vivo, Alopecurus myosuroides; conditions: Alopecurus myosuroides, 504 h, visual assessment about 3 weeks after treatment vs untreated controls
# Method in brief: as §2
# VIOTR [10] = test: Post-emergence herbicidal action against VIOTR; assay type: in vivo, Viola tricolor; conditions: Viola tricolor, 504 h, 20 g/ha
# Method in brief: as §2
# AMARE [11] = test: Pre-emergence herbicidal action against AMARE; assay type: in vivo, Amaranthus retroflexus; conditions: Amaranthus retroflexus, 504 h, scored visually after 3 weeks vs untreated controls, 100% = plants have died, 0% = like control plants
# Method in brief: as §1
# PHBPU [12] = test: Pre-emergence herbicidal action against PHBPU; assay type: in vivo, Pharbitis purpurea; conditions: Ipomoea purpurea, 504 h, dosage 80 g/ha
# Method in brief: as §1
# MATIN = test: Pre-emergence herbicidal action against MATIN; assay type: in vivo, Matricaria inodora; conditions: Tripleurospermum inodorum, 504 h; for pest or weed control at 20 g/ha: dosage 20 g/ha; for pest or weed control at 80 g/ha: dosage 80 g/ha
# Method in brief: as §1
# AVEFA = test: Pre-emergence herbicidal action against AVEFA; assay type: in vivo, Avena fatua; conditions: Avena fatua, 504 h, pre-emergence
# Method in brief: as §1
# SETVI = test: Pre-emergence herbicidal action against SETVI; assay type: in vivo, Setaria viridis; conditions: Setaria viridis, 504 h, dosage 80 g/ha
# Method in brief: as §1
smiles,measurement,setting,value
CCCNC(=O)c1c(Br)ccc(C(=O)Nc2nnnn2C)c1Cl [Example 1-184],pest or weed control at 80 g/ha,ECHCG [1],100%
same,pest or weed control at 80 g/ha,ALOMY [2],100%
same,pest or weed control at 20 g/ha,ALOMY [2],90%
same,pest or weed control at 20 g/ha,AMARE [3],100%
same,pest or weed control at 80 g/ha,VERPE,90%
same,pest or weed control at 80 g/ha,ABUTH [4],100%
same,pest or weed control at 5 g/ha,ABUTH [5]; dosage 5 g/ha,80%
same,pest or weed control at 20 g/ha,ABUTH [5],80%
same,pest or weed control at 20 g/ha,ECHCG [6],100%
same,pest or weed control at 20 g/ha,PHBPU [7],80%
same,pest or weed control at 80 g/ha,VIOTR [8],90%
same,pest or weed control at 80 g/ha,POLCO,80%
same,pest or weed control at 5 g/ha,ALOMY [9]; dosage 5 g/ha,80%
same,pest or weed control at 20 g/ha,ALOMY [9]; dosage 20 g/ha,80%
same,pest or weed control at 20 g/ha,VIOTR [10],90%
same,pest or weed control at 20 g/ha,AMARE [11],100%
same,pest or weed control at 80 g/ha,AMARE [11],100%
same,pest or weed control at 80 g/ha,PHBPU [12],80%
same,pest or weed control at 20 g/ha,MATIN,80%
same,pest or weed control at 80 g/ha,MATIN,100%
Cn1nnnc1NC(=O)c1ccc(C(F)(F)F)c(C(=O)NCC(F)(F)F)c1Br [Example 1-211],pest or weed control at 20 g/ha,ECHCG [1]; 20 g/ha,90%
same,pest or weed control at 80 g/ha,ECHCG [1],100%
same,pest or weed control at 80 g/ha,AVEFA; 80 g/ha,90%
same,pest or weed control at 20 g/ha,"AVEFA; 20 g/ha, scored visually after 3 weeks, 100% = plants have died, 0% = like control plants",80%
same,pest or weed control at 80 g/ha,ALOMY [2],100%
same,pest or weed control at 20 g/ha,ALOMY [2],90%
same,pest or weed control at 20 g/ha,AMARE [3],90%
same,pest or weed control at 80 g/ha,SETVI,100%
same,pest or weed control at 80 g/ha,VERPE,100%
same,pest or weed control at 80 g/ha,ABUTH [4],100%
same,pest or weed control at 20 g/ha,"ABUTH [4]; dosage 20 g/ha, scored visually after 3 weeks vs untreated controls, 100% = plants have died, 0% = like control plants, read-out: Pre-emergence action against ABUTH (herbicidal activity in percent)",100%
same,pest or weed control at 20 g/ha,ABUTH [5],80%
same,pest or weed control at 5 g/ha,ECHCG [6]; dosage 5 g/ha,80%
same,pest or weed control at 20 g/ha,ECHCG [6],90%
same,pest or weed control at 80 g/ha,VIOTR [8],100%
same,pest or weed control at 80 g/ha,POLCO,90%
same,pest or weed control at 20 g/ha,AMARE [11],100%
same,pest or weed control at 80 g/ha,AMARE [11],100%
same,pest or weed control at 80 g/ha,PHBPU [12],80%
same,pest or weed control at 20 g/ha,MATIN,90%
same,pest or weed control at 80 g/ha,MATIN,100%
